Laboratory results: publication PMC4006925, “Squalene Synthase As a Target for Chagas Disease Therapeutics” (PLoS Pathogens, 2014)

What was measured:
T. cruzi epimastigotes [1] = test: Sterol composition of T. cruzi epimastigotes, GC-MS; assay type: cell-based, Trypanosoma cruzi; conditions: 4 µM compound
Description: . Cells from cultures (96 h incubation) were washed with Buffer A with glucose (116 mM NaCl, 5.4 mM KCl, 0.8 mM MgSO4, 5.5 mM D-glucose, and 50 mM HEPES at pH 7.0) then pelleted and chloroform/methanol (2∶1 v/v) added (∼30 mL of solvent per gram of wet cells) followed by vigorous stirring and overnight incubation at 4°C. The extract was then filtered using Whatman #2 paper to eliminate insoluble material, and the filtrate (a single phase) dried under nitrogen. The extract was then re-extracted using chloroform/methanol 9/1 v/v, dried under nitrogen, dissolved in 1 mL of pure chloroform and re-dried under nitrogen gas. The extracted lipids were saponified with 5 mL of ethanolic-potassium hydroxide (5 g KOH, 7 mL water, 14 mL ethanol) for 1 hour at 80°C. After cooling, 2.5 mL of water and 1.5 mL hexane were added and the phases allowed to separate. […] Samples were analyzed on a 30 m DB5 column with 0.32 mm I.D. and 0.25 µm film thickness (Agilent Inc, Palo Alto, CA, USA) with an injection port temperature of 300°C, the interface was set to 300°C, the ion source adjusted to 230°C, MS Quadrupole 150°C. […] The spectra of all chromatogram peaks were evaluated by using the HP Chemstation (Agilent, Palo Alto, CA, USA) program. Identifications and quantifications were performed using mass spectra obtained from authentic standards and with NIST08 and W8N08 libraries (John Wiley & Sons, Inc., USA).

Vero cells = test: Vero (host) cell proliferation, alamarBlue; assay type: cell-based; conditions: Chlorocebus sabaeus, Vero, read-out: IC50 Vero cells (host cell growth)
Description: Vero cells (1.7×10^4 cells/well) were seeded in 96 well plates (black, clear bottom from Greiner Bio-One Cat#655090) in 100 µL RPMI media (Sigma Cat# R-4130) with 10% FBS. Plates were tested as described by Recher et al.

T. cruzi = test: Rescue from T. cruzi cell growth inhibition by farnesol or geranylgeraniol; assay type: cell-based, Trypanosoma cruzi
T. cruzi epimastigotes [2] = test: UQ9 biosynthesis in epimastigotes, LC-MS; assay type: cell-based, Trypanosoma cruzi
Description: For ubiquinone extraction, epimastigotes (1 g wet weight) were washed twice with buffer A with glucose (116 mM NaCl, 5.4 mM KCl, 0.8 mM MgSO4, 5.5 mM D-glucose, and 50 mM HEPES at pH 7.0). To break the cells, the pellets were frozen in a dry ice-100% ethanol bath (for 7 min) and thawed at 37°C (for 3 min) for a total of 5 times. One volume of water and three volumes of 1-propanol were added to the pellet. The samples were vortexed for 30 sec at room temperature and allowed to stand for one minute. Two volumes of n-hexane were added, the mixture vortexed for 30 sec at room temperature, then centrifuged at 12,000× g for 5 min. The upper phase, containing ubiquinone, was collected into a glass tube, and dried under nitrogen gas, then analyzed using LC-MS.
LC/MS was performed using an Agilent LC/MSD Trap XCT Plus system (Agilent Technologies, Santa Clara, CA) with an 1100 series HPLC system including a degasser, an auto-sampler, a binary pump, and a multiple-wavelength detector. The LC separation used a Phenomenex Gemini 3u C18 110A column (2 mm×100 mm) (Torrence, CA) with mobile phase A (0.1% formic acid in water) and mobile phase B (0.1% formic acid in acetonitrile). The flow-rate was 0.25 mL/min. The linear gradient was as follows: 0–1 min, 100% A; 7–50 min, 0% A; 51–56 min, 100% A. The auto-sampler was set at 5°C and the injection volume was 15 µL. UV signals were recorded at 275 nm. […]

Compound: CCCCCCCCCC[n+]1ccn(CC(P(=O)([O-])O)P(=O)(O)O)c1 (stereo not drawn) [BPH-1218]
- endogenous ergosterol and the three major ergosterol related sterols, % of total sterols (T. cruzi epimastigotes [1]; without compound 36%): 15%
- content of exogeneously-acquired cholesterol, % of total sterols (T. cruzi epimastigotes [1]; without compound 51%): 71%
- IC50 (Vero cells): ~1 mM
- rescue afforded by farnesol (T. cruzi): no “rescue”
- rescue by geranylgeraniol (T. cruzi; geranylgeraniol at 40 µM): ~20%
- decrease in UQ9 biosynthesis (T. cruzi epimastigotes [2]): ~40%
